The results in this text go back to patent US12447153B2, “HER2 mutation inhibitors” (Array BioPharma Inc., priority 2021, dated 2025).

The target in one test is ErbB2 WT (Homo sapiens (Human), UniProt P04626). Briefly: ErbB Enzyme Assay (HTRF KinEASE-TK), Assay 2. Type of test: biochemical. The protocol: (§1) The kinases were incubated with 250 nM TK-substrate biotin (CisBio, part of cat #62TKOPEC) at 1 mM ATP along with test compounds in a buffer consisting of 25 mM HEPES, pH 7.4, 10 mM MgCl2, 0.01% Triton X-100, and 2% DMSO in a volume of 8 μL. […] After 30-minute incubation at 22° C., the reaction was quenched by adding 8 μL of quench solution containing 62.5 nM Sa-XL665 and 0.25×TK-Ab-Cryptate in HTRF detection buffer (all from CisBio, part of cat #62TKOPEC).
ErbB2 WT, sequence (P04626 23-1255): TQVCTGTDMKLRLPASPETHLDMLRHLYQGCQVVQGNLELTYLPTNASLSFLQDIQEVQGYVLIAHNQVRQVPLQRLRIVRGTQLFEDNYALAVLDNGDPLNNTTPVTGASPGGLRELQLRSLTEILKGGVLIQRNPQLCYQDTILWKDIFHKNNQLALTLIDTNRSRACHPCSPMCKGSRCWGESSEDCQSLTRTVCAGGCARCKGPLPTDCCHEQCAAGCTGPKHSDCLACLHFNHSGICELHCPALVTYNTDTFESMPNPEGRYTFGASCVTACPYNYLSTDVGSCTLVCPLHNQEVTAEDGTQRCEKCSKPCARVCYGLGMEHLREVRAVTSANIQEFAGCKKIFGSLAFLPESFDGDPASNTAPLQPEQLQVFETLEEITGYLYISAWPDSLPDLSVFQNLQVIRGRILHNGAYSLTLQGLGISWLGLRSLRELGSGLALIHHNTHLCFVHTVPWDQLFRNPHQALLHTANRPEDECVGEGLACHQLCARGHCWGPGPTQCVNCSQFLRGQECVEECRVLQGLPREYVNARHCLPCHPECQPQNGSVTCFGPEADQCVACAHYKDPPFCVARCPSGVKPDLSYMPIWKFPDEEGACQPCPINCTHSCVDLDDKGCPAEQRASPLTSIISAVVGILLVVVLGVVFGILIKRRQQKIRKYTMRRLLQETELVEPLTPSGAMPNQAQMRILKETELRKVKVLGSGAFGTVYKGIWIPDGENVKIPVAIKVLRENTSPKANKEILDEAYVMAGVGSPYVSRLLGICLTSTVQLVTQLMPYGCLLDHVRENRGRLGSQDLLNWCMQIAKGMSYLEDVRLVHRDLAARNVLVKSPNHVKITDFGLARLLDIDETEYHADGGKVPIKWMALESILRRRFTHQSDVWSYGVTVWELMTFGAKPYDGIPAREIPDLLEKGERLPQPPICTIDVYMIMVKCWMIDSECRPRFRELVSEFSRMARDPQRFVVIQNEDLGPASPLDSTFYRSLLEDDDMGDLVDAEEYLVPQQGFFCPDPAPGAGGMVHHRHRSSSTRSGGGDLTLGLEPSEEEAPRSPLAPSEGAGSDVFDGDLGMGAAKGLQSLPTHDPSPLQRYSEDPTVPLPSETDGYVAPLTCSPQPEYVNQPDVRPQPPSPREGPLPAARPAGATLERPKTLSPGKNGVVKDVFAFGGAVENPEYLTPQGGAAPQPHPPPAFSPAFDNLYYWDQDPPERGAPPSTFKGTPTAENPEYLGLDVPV

A further test has as its target EGFR (Homo sapiens (Human), UniProt P00533). The experiment in a line: ErbB Enzyme Assay (HTRF KinEASE-TK), Assay 3. Type of test: biochemical. The protocol:
as §1, with “#62TKOPEC). […] A 4-parameter logistic curve was fit to the POC values as a function of the concentration of compound, and the IC50 value was the point where the best-fit curve crossed 50 POC.” for “#62TKOPEC).”
In general terms: TR-FRET usually uses a lanthanide donor and a delayed reading to cut background.

In test [1] the target is ErbB2 with Exon 20 YVMA insertion (HER2-YVMA) (Homo sapiens (Human), UniProt P04626, INS775YVMA). The experiment in a line: Cellular Phosphorylation Assay, Assay 4 (constitutive ErbB2 phosphorylation, NIH 3T3 cells). The test is classed as cell-based. As for the experimental part:
(§2) NIH 3T3 cells were engineered to express ErbB2 with Exon 20 YVMA insertion (HER2-YVMA (SEQ ID NO: 2); Assay 4) or EGFR wild type (EGFR WT; Assay 5) with constructs obtained from GenScript and grown in DMEM supplemented with 10% fetal bovine serum and 15 μg/ml blasticidin. […] Serially diluted compounds were added to the plates for 1 hour at 37° C./5% CO2. EGFR WT cells were stimulated with 100 ng/ml rEGF for an additional 10 minutes at 37° C./5% CO2.
(§3) After compound incubation, medium was removed from the cells, which were then fixed in 3.7% formaldehyde in PBS at room temperature for 20 minutes. Following a wash with PBS, cells were permeabilized with 100% methanol at room temperature for 10 minutes. Cells were then washed with PBS/0.05% Tween-20 and blocked with Odyssey blocking buffer (LI-COR Biosciences) for at least 1 hour at room temperature. Antibodies to phosphorylated ErbB2 (Y1196, Cell Signaling #6942) or phosphorylated EGFR (Y1068, Cell Signaling #3777) and GAPDH (Millipore #MAB374) were added to the cells in blocking buffer containing 0.05% azide and incubated overnight at 4° C. After washing with PBS/0.05% Tween-20, the cells were incubated with fluorescently labeled secondary anti-rabbit antibody (LiCOR, IRDye 800CW #926-32211) and anti-mouse antibody (Molecular Probes, Alexa Fluor 680 #A21058) for 1 hour at room temperature in the dark. Cells were then washed and analyzed for fluorescence at both wavelengths using the Odyssey Infrared Imaging System (LI-COR Biosciences). Phosphorylated ErbB2 and EGFR signal was normalized to GAPDH signal to generate curves and calculate IC50 values.

A further test has as its target EGFR wild type (EGFR WT) (Homo sapiens (Human), UniProt P00533). The experiment in a line: Cellular Phosphorylation Assay, Assay 5 (EGF-stimulated EGFR phosphorylation, NIH 3T3 cells). Type of test: cell-based. As for the experimental part: as §2, §3
Where [2] appears, read: EGF-stimulated EGFR WT phosphorylation.
Setting [3] is: cellular ErbB2 YVMA phosphorylation.
Setting [4] is: cellular EGFR WT phosphorylation, EGF-stimulated.

ErbB2 with Exon 20 YVMA insertion (HER2-YVMA), sequence (P04626 other isoform, or with tags, fused parts or gaps ins YVMA behind 775): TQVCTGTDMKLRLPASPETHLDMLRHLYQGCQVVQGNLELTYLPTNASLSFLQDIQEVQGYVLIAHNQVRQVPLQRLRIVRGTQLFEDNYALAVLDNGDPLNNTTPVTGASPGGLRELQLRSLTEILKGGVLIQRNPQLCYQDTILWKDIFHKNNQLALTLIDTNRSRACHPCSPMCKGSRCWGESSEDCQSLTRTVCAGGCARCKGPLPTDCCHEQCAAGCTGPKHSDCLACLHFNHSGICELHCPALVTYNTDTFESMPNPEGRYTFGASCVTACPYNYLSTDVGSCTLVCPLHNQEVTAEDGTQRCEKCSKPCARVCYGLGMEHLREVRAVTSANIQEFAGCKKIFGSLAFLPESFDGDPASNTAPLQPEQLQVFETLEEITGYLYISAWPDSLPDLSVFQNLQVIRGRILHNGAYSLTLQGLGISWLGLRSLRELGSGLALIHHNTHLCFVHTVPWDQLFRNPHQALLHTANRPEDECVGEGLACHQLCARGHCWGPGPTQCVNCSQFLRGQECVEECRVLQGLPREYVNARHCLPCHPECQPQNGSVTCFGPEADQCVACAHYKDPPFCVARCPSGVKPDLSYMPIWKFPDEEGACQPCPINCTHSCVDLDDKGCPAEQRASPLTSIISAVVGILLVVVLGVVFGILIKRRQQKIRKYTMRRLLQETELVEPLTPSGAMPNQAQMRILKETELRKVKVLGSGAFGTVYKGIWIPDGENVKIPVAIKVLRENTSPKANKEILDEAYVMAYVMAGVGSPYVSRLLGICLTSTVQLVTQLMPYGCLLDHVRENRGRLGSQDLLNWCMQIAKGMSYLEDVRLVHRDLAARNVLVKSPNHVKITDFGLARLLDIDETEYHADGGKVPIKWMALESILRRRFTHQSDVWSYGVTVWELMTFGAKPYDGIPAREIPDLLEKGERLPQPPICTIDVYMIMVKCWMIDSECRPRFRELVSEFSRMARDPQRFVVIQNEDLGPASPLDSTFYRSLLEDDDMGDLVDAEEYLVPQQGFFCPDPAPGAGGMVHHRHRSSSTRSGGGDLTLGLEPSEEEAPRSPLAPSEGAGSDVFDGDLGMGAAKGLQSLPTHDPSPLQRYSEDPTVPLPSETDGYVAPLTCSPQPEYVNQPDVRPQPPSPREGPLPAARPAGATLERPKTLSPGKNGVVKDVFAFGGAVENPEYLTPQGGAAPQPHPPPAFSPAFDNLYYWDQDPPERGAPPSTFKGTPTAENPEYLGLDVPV
EGFR wild type (EGFR WT), sequence (P00533 25-1210): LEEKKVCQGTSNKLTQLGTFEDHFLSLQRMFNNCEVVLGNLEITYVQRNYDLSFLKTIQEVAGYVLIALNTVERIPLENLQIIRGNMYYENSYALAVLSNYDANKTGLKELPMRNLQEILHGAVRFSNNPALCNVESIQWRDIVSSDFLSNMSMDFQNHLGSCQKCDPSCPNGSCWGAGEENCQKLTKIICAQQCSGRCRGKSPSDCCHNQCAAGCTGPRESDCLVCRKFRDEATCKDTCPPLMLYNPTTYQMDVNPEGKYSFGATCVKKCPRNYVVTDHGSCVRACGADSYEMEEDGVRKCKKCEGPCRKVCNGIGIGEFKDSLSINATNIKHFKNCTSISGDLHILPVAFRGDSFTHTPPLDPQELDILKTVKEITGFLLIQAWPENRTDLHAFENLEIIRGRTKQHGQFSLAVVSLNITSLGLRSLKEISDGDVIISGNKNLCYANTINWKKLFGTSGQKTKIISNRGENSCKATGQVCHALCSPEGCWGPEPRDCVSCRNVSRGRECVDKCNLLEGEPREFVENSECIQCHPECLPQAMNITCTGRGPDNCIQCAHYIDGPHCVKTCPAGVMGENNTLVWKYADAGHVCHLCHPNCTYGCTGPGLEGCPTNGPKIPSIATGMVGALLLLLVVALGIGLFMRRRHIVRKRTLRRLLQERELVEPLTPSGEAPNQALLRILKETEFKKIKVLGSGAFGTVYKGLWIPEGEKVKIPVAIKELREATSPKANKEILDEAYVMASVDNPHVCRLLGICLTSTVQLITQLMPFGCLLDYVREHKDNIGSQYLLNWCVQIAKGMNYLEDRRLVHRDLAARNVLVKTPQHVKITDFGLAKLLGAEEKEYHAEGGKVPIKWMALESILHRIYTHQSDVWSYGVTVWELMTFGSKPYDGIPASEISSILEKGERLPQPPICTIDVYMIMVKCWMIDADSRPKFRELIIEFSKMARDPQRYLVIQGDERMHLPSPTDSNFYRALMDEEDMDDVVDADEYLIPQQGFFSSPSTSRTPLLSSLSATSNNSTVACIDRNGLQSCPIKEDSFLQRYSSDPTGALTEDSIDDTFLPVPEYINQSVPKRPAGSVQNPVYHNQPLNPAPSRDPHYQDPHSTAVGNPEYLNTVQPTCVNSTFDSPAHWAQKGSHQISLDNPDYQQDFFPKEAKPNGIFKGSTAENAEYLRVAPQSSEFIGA
EGFR, sequence (P00533 25-1210): as above

In the case of `C=CC(=O)N1CCN(c2ccc3ncnc(Nc4ccc(Oc5ccn6ncnc6c5)c(C)c4F)c3n2)C[C@@H]1C1CC1` (racemic) [Example 163, rac-1-(4-(4-((4-([1,2,4]triazolo[1,5-a]pyridin-7-yloxy)-2-fluoro-3-methylphenyl)amino)pyrido[3,2-d]pyrimidin-6-yl)-2-cyclopropylpiperazin-1-yl)prop-2-en-1-one], the IC50 against ErbB2 WT (ErbB2 WT enzyme) is 42.3 nM; on EGFR (EGFR enzyme) it was 8790 nM; in test [1] (ErbB2 YVMA phosphorylation), 18.8 nM; on EGFR wild type (EGFR WT) (setting [2]), 1510 nM.
As for `CC#CC(=O)N1CCN(c2ccc3ncnc(Nc4ccc(Oc5ccn6ncnc6c5)c(C)c4F)c3n2)C[C@@H]1C(F)F` (racemic) [Example 168, rac-1-(4-(4-((4-([1,2,4]triazolo[1,5-a]pyridin-7-yloxy)-2-fluoro-3-methylphenyl)amino)pyrido[3,2-d]pyrimidin-6-yl)-2-(difluoromethyl)piperazin-1-yl)but-2-yn-1-one], the IC50 stood at 74.3 nM on ErbB2 WT (ErbB2 WT enzyme), 1790 nM against EGFR (EGFR enzyme), 16.5 nM in test [1] (ErbB2 YVMA phosphorylation) and 356 nM on EGFR wild type (EGFR WT) (setting [2]).
On to `C=CC(=O)N1CC[C@H](c2ccc3ncnc(Nc4ccc(Oc5cnc6c(c5)ncn6C)c(Cl)c4)c3n2)CC1(C)C` (racemic) [Example 272], for which the IC50 is 124 nM against ErbB2 WT (ErbB2 WT enzyme assay), ≥ 10000 nM on EGFR (EGFR enzyme assay), 76.9 nM in test [1] (setting [3]) and ≥ 5000 nM at EGFR wild type (EGFR WT) (setting [4]).
The matching figures for `C=CC(=O)N1CCN(c2ccc3ncnc(Nc4ccc(Oc5cc(F)c6c(c5)ncn6C)c(C)c4)c3n2)C[C@@H]1C1CC1` (racemic) [Example 278]: 54.6 nM, 6630 nM, 18.1 nM and 1820 nM.
The matching figures for `C=CC(=O)N1CC[C@H](c2ccc3ncnc(Nc4ccc(Oc5cc(F)c6c(c5)ncn6C)c(C)c4)c3n2)CC1(C)C` (racemic) [Example 279]: 145 nM, ≥ 10000 nM, 62.1 nM and ≥ 5000 nM.
The matching figures for `C=CC(=O)N1C[C@H](c2ccc3ncnc(Nc4ccc(Oc5ccn6ncnc6c5)c(C)c4F)c3n2)CC1(C)C` (racemic) [Example 296]: 58.5 nM, 881 nM, 36.1 nM and 1440 nM.
On to `C=CC(=O)N1CCN(c2ccc3ncnc(Nc4ccc(Oc5ccn6ncnc6c5)c(C)c4F)c3n2)C[C@@H]1C(F)F` (racemic) [Example 297], for which the IC50 against ErbB2 WT (ErbB2 WT enzyme assay) is 11.4 nM; against EGFR (EGFR enzyme assay), 168 nM; in test [1] (setting [3]) it was 12.8 nM; at EGFR wild type (EGFR WT) (setting [4]) it was 239 nM.
The matching figures for `C=CC(=O)N1CCN(c2ccc3ncnc(Nc4ccc(Oc5ccn6ncnc6c5)c(Cl)c4F)c3n2)C[C@@H]1C(F)F` (racemic) [Example 299]: 1.2 nM, 29.4 nM, 4.1 nM and 66.2 nM.
In the case of `CCC(=O)N1CC([C@H](C)c2ccc3ncnc(Nc4ccc(Oc5ccn6ncnc6c5)c(C)c4F)c3n2)C1` (racemic) [Example 301], the IC50 on ErbB2 WT (ErbB2 WT enzyme assay) stood at 94.8 nM; at EGFR (EGFR enzyme assay), 2250 nM; in test [1] (setting [3]), 51.1 nM; at EGFR wild type (EGFR WT) (setting [4]), 2550 nM.
The matching figures for `C=CC(=O)N1CCN(c2ccc3ncnc(Nc4ccc(Oc5ccn6ncnc6c5)c(C)c4F)c3n2)C[C@@H]1C1CCC1` (racemic) [Example 305]: 127 nM, 7970 nM, 66.1 nM and ≥ 5000 nM.
The matching figures for `C=CC(=O)N1CCN(c2ccc3ncnc(Nc4cc(C)c(Oc5ccn6ncnc6c5)cc4F)c3n2)C[C@@H]1C(F)F` (racemic) [Example 312]: 23.8 nM, 892 nM, 13.4 nM and 312 nM.
Take `C=CC(=O)N1[C@@H](C)CC(c2ccc3ncnc(Nc4ccc(Oc5ccc6c(c5)ncn6C)c(C)c4F)c3n2)C[C@@H]1C` (mixture of isomers) [Example 313]: the IC50 at ErbB2 WT (ErbB2 WT enzyme assay) is 79.7 nM; at EGFR (EGFR enzyme assay), ≥ 10000 nM; in test [1] (setting [3]), 51.9 nM; at EGFR wild type (EGFR WT) (setting [4]), ≥ 5000 nM.
Take `C=CC(=O)N1CC[C@H](c2ccc3ncnc(Nc4ccc(Oc5ccn6ncnc6c5)c(C)c4F)c3n2)CC1(C)C` (racemic) [Example 314]: the IC50 on ErbB2 WT (ErbB2 WT enzyme assay) is 59.4 nM; against EGFR (EGFR enzyme assay), 5550 nM; in test [1] (setting [3]), 124 nM; against EGFR wild type (EGFR WT) (setting [4]), ≥ 5000 nM.
In the case of `C=CC(=O)N1CCCC[C@@H](c2ccc3ncnc(Nc4ccc(Oc5ccc6c(c5)ncn6C)c(C)c4)c3n2)C1` (single isomer, unassigned) [Example 171], the IC50 at ErbB2 WT (ErbB2 WT enzyme) was 13.4 nM; against EGFR (EGFR enzyme), ≥ 10000 nM; in test [1] (ErbB2 YVMA phosphorylation) it was 26.3 nM; on EGFR wild type (EGFR WT) (setting [2]) it was ≥ 5000 nM.
On the same counts, the results for `C=CC(=O)N1CCCC[C@H](c2ccc3ncnc(Nc4ccc(Oc5ccc6c(c5)ncn6C)c(C)c4)c3n2)C1` (single isomer, unassigned) [Example 172] are 5.2 nM, 720 nM, 13.9 nM and 1960 nM.
Turning to `C=CC(=O)N1CC[C@H](c2ccc3ncnc(Nc4ccc(Oc5ccn6ncnc6c5)c(C)c4F)c3n2)CC12CC2` (single isomer, unassigned) [Example 174], the IC50 at ErbB2 WT (ErbB2 WT enzyme) is 23.8 nM; on EGFR (EGFR enzyme) it was 736 nM; in test [1] (ErbB2 YVMA phosphorylation) it was 7.9 nM; against EGFR wild type (EGFR WT) (setting [2]), 270 nM.
On the same counts, the results for `C=CC(=O)N1CCC[C@@H](c2ccc3ncnc(Nc4ccc(Oc5ccn6ncnc6c5)c(C)c4F)c3n2)CC1` (single isomer, unassigned) [Example 209] are 16.4 nM, 872 nM, 20.1 nM and 503 nM.
On the same counts, the results for `C=CC(=O)N1CCC[C@@H](c2ccc3ncnc(Nc4ccc(Oc5ccn6ncnc6c5)c(C)c4F)c3n2)CC1` (single isomer, unassigned) [Example 210] are 10.7 nM, 1610 nM, 67.7 nM and ≥ 5000 nM.
As for `CC#CC(=O)N1CCC[C@@H](c2ccc3ncnc(Nc4ccc(Oc5ccn6ncnc6c5)c(C)c4F)c3n2)CC1` (single isomer, unassigned) [Example 211], the IC50 on ErbB2 WT (ErbB2 WT enzyme) is 65.4 nM; at EGFR (EGFR enzyme), 5400 nM; in test [1] (ErbB2 YVMA phosphorylation), 317 nM; against EGFR wild type (EGFR WT) (setting [2]) it was ≥ 5000 nM.
The matching figures for `CC#CC(=O)N1CCC[C@@H](c2ccc3ncnc(Nc4ccc(Oc5ccn6ncnc6c5)c(C)c4F)c3n2)CC1` (single isomer, unassigned) [Example 212]: 66.2 nM, 3380 nM, 386 nM and ≥ 5000 nM.
Turning to `C=CC(=O)N1CC[C@@H]2C[C@@H](c3ccc4ncnc(Nc5cc(C)c(Oc6ccn7ncnc7c6)cc5F)c4n3)C[C@@H]21` (single isomer, unassigned) [Example 224], the IC50 is 58 nM at ErbB2 WT (ErbB2 WT enzyme), 2290 nM at EGFR (EGFR enzyme), 91.3 nM in test [1] (ErbB2 YVMA phosphorylation) and ≥ 5000 nM at EGFR wild type (EGFR WT) (setting [2]).
For the compound `C=CC(=O)N1[C@@H]2CC[C@H]1[C@H](c1ccc3ncnc(Nc4ccc(Oc5ccn6ncnc6c5)c(C)c4)c3n1)C2` (single isomer, unassigned) [Example 233], the IC50 is 121 nM at ErbB2 WT (ErbB2 WT enzyme), 4880 nM at EGFR (EGFR enzyme), 83.8 nM in test [1] (ErbB2 YVMA phosphorylation) and ≥ 5000 nM on EGFR wild type (EGFR WT) (setting [2]).

In general, IC50 refers to the concentration that gives 50% inhibition. Low readings indicate greater potency, high ones weaker potency.
